Measurements: patent publication US20130046171A1, “DEVICE AND METHOD FOR ACCESSING AND TREATING DUCTS OF MAMMARY GLANDS” (priority 2008, published 2013)

What was measured:
[1] = test system: mammary tumors; settings: NMU administered at 55 days of age; cited from earlier work
[2] = test system: NMU-induced tumorigenesis in mammary glands; assay: Prophylaxis of NMU-induced mammary tumorigenesis by intraductal injection; type: in vivo, Sprague Dawley rats; settings: rats given NMU 50 mg/kg i.v. after treatment, monitored 8 months
Method: The mammary glands (6 on each side) of six virgin 50 day old Sprague Dawley rats were injected with AdHS-tk on the left side and trypan blue on the right side or left untreated. One rat remained completely untreated with the virus or GCV and served as a positive control for NMU-induced tumorigenesis. On the day of surgery, rats were given an intramuscular injection of 5 μg estradiol valerate and were anesthetized with an isofluorane/O2 mixture. The nipples were cannulated with a 33 gauge needle. Twenty μl of AdHS-tk diluted in trypan blue carrier (1 mM MgCl2, 20 μg/ml polybrene in 10% glycerol, 0.4% trypan blue in saline) at a concentration of 5×10^7 particles/μl were injected into the duct. Carrier control mammary glands received 20 μl of trypan blue carrier alone. An animal was considered treated when at least three glands were successfully injected with trypan blue and another three glands were successfully injected with AdHS-tk. The remaining glands were left untreated. Twelve hrs later, the rats were injected with 125 mg/kg body weight GCV twice daily for three days. […] Five to seven days after GCV treatment, the rats were given an intravenous injection of NMU dissolved in 0.05% acetic acid (Ash Stevens, CO; 50 mg NMU/kg body weight) and were subsequently monitored for general health and the appearance of tumors at weekly intervals for 8 months.

[3] = test system: ductal carcinoma in situ, MNU-induced tumor formation; assay: MNU-induced tumor formation rat model, teat infusion of anticancer agents; type: in vivo, Sprague Dawley rats; settings: for incidence of tumor mass formation: within 6 months of MNU-injection; for rats with no visible masses or mammary lesions at necropsy: necropsy Day 180±2
From the text: The objective of this study was to evaluate the efficacy of five test articles (four marketed anticancer agents), administered directly into the mammary gland ducts via teat infusion, for therapy and prevention of ductal carcinoma in situ in an N-Nitroso-N-Methylurea (MNU)-induced tumor formation rat model. Based upon previous animal studies, candidates were selected for more rigorous evaluation at B Braun Biological Test Center (BTC) in Irvine, Calif. This facility was chosen to continue the preclinical work, started by Dr. Sukumar at JHU in order to support studies with a larger number of animals, in compliance with Good Laboratory Practices.
The agents were tested in 120 female Sprague Dawley rats (n=20 per treatment). On Day 1, each rat was injected intraperitoneally with MNU to induce tumor formation. […] Rats were weighed prior to MNU injection, prior to intra-ductal infusion, and once weekly throughout the study.
Rats were observed twice daily for mortality/morbidity and 1-3 times weekly for general appearance, stool appearance, signs of toxicity, and palpable mass formation until death or euthanasia. […] At necropsy, organs and tissues were grossly observed, and the entire bilateral mammary gland system, visible masses, and abnormal tissues were collected and retained in formalin.

[4] = Pharmacokinetic analysis of venous blood after intraductal administration; type: in vivo, women; settings: intraductal carboplatin
Method: (§1) The study was performed in Cancer Hospital, Chinese Academy of Medical Sciences, Beijing, China where the standard of care includes a long preoperative hospital stay prior to mastectomy. Two drugs, pegylated liposomal doxorubicin (PLD) and carboplatin (C) were administered at 3 dose levels (PLD: 10, 20, 50 mg and carboplatin 60, 120, 300 mg) with the highest dose approximating the clinical intravenous dose. There were five subjects in each group with 15 subjects treated with each drug once. After informed consent, under local anesthesia subjects underwent cannulation of 5-8 ducts with intraductal instillation of the drug. Venous blood samples were obtained for pharmacokinetic analysis. The total dosage was divided by the number of cannulated ducts to yield a dose per duct. The breast was removed surgically as planned 2-5 days post treatment and the treated ducts were marked to enable identification on pathological evaluation. Intraductal administration was generally well-tolerated with mild, transient breast discomfort upon administration associated with the rate of infusion. Clinically significant laboratory adverse events were limited to decreases in hemoglobin following mastectomy, consistent with blood loss. […] In the carboplatin arm, three women at the 300 mg dose experienced mild nausea and vomiting.

[5] = Dose escalation study of intraductal cytotoxic drugs in women prior to mastectomy, safety; type: in vivo; settings: 300 mg dose, five subjects per group
Method: as §1

For `CN(N=O)C(N)=O` [NMU, N-Nitroso-N-Methylurea], the “female rats that develop mammary tumors” value [1] is listed as 90-100%.

With `Nc1nc(O)c2ncn(COC(CO)CO)c2n1` [No injection; Ganciclovir, Ganciclovir] the “% of Glands with Tumor” value [2] was 25.0% and the “No. of Tumors” value [2] was 5.

In the case of `CC(=O)O[C@H]1C(=O)[C@@]2(C)[C@H]([C@H](OC(=O)c3ccccc3)[C@]3(O)C[C@H](OC(=O)[C@H](O)[C@@H](NC(=O)c4ccccc4)c4ccccc4)C(C)=C1C3(C)C)[C@]1(OC(C)=O)CO[C@@H]1C[C@@H]2O` [Taxol®, paclitaxel], the “incidence of palpable masses during the course of the study” value ([3]; 0.15 mg/teat) is reported as “highest and most rapid”, the “number of rats with masses at final observations prior to death or euthanasia” value ([3]; 0.15 mg/teat intraductal on Day 15) is reported as 20 of 20 and the “rats with visible masses at necropsy” value ([3]; 0.15 mg/teat, necropsied 4 months post-MNU injection, 20 rats) is reported as 20 rats. The “incidence of tumor mass formation” value ([3]; 0.15 mg/teat) was “highest incidence of mass formation”.

In the case of `N.N.O=C([O-])C1(C(=O)[O-])CCC1.[Pt+2]` [carboplatin], the “plasma ultrafiltrate AUC (area under the curve)” value [4] is reported as “consistent with the Calvert Formula using estimated GFR”, the “peak time (tmax)” value ([4]; systemic circulation) is reported as roughly 30 min and the “rats with no visible masses or mammary lesions at necropsy” value ([3]; 0.42 mg/teat) is reported as 5 of 20. The “incidence of palpable masses during the course of the study” value ([3]; 0.75 mg/teat) was “lowest and least rapid”, the “number of rats with masses at final observations prior to death or euthanasia” value ([3]; 0.75 mg/teat intraductal on Day 15) was 11 of 20 and the “rats with no visible masses or mammary lesions at necropsy” value ([3]; 0.75 mg/teat) was 7 of 19. The “incidence of tumor mass formation” value ([3]; 0.75 mg/teat) was “lowest incidence of tumor mass formation” and the “mild nausea and vomiting” value [5] was “three”.
